± gives the expanded uncertainty stated by the source.
Experiment: xn = mol fraction of the nth substance listed
Settings: Liquid, Vibrating tube method

COc1cc2c(cc1O)CC1c3c(cc(O)c(OC)c3-2)CCN1C (stereo not given) [boldine] + CCCO
mass density (333.04 K, 7000 kPa, x1 = 0.0077): 789.55 ± 0.68 kg/m3
mass density (333.04 K, 7000 kPa, x1 = 0.0112): 796.25 ± 0.73 kg/m3
mass density (333.04 K, 7000 kPa, x1 = 0.0142): 800.8 ± 0.64 kg/m3
mass density (333.04 K, 8000 kPa, x1 = 0.0018): 780.38 ± 0.93 kg/m3
mass density (333.04 K, 8000 kPa, x1 = 0.0077): 790.45 ± 0.68 kg/m3
mass density (333.04 K, 8000 kPa, x1 = 0.0112): 797.14 ± 0.73 kg/m3
mass density (333.04 K, 8000 kPa, x1 = 0.0142): 801.7 ± 0.65 kg/m3
mass density (333.04 K, 9000 kPa, x1 = 0.0018): 781.29 ± 0.93 kg/m3
mass density (333.04 K, 9000 kPa, x1 = 0.0077): 791.35 ± 0.68 kg/m3
mass density (333.04 K, 9000 kPa, x1 = 0.0112): 798.03 ± 0.73 kg/m3
mass density (333.04 K, 9000 kPa, x1 = 0.0142): 802.57 ± 0.65 kg/m3
mass density (333.04 K, 10000 kPa, x1 = 0.0018): 782.18 ± 0.93 kg/m3
mass density (333.04 K, 10000 kPa, x1 = 0.0077): 792.22 ± 0.69 kg/m3
mass density (333.04 K, 10000 kPa, x1 = 0.0112): 798.91 ± 0.74 kg/m3
mass density (333.04 K, 10000 kPa, x1 = 0.0142): 803.44 ± 0.65 kg/m3
mass density (333.04 K, 11000 kPa, x1 = 0.0018): 783.07 ± 0.94 kg/m3
mass density (333.04 K, 11000 kPa, x1 = 0.0077): 793.11 ± 0.69 kg/m3
mass density (333.04 K, 11000 kPa, x1 = 0.0112): 799.78 ± 0.74 kg/m3
mass density (333.04 K, 11000 kPa, x1 = 0.0142): 804.31 ± 0.65 kg/m3
mass density (333.04 K, 12000 kPa, x1 = 0.0018): 783.97 ± 0.94 kg/m3
mass density (333.04 K, 12000 kPa, x1 = 0.0077): 793.99 ± 0.69 kg/m3
mass density (333.04 K, 12000 kPa, x1 = 0.0112): 800.64 ± 0.74 kg/m3
mass density (333.04 K, 12000 kPa, x1 = 0.0142): 805.16 ± 0.66 kg/m3
mass density (333.04 K, 13000 kPa, x1 = 0.0018): 784.84 ± 0.94 kg/m3
mass density (333.04 K, 13000 kPa, x1 = 0.0077): 794.86 ± 0.69 kg/m3
mass density (333.04 K, 13000 kPa, x1 = 0.0112): 801.49 ± 0.74 kg/m3
mass density (333.04 K, 13000 kPa, x1 = 0.0142): 806.02 ± 0.66 kg/m3
mass density (333.04 K, 14000 kPa, x1 = 0.0018): 785.7 ± 0.94 kg/m3
mass density (333.04 K, 14000 kPa, x1 = 0.0077): 795.71 ± 0.7 kg/m3
mass density (333.04 K, 14000 kPa, x1 = 0.0112): 802.35 ± 0.75 kg/m3
mass density (333.04 K, 14000 kPa, x1 = 0.0142): 806.86 ± 0.66 kg/m3
mass density (333.04 K, 15000 kPa, x1 = 0.0018): 786.56 ± 0.95 kg/m3
mass density (333.04 K, 15000 kPa, x1 = 0.0077): 796.55 ± 0.7 kg/m3
mass density (333.04 K, 15000 kPa, x1 = 0.0112): 803.19 ± 0.75 kg/m3
mass density (333.04 K, 15000 kPa, x1 = 0.0142): 807.69 ± 0.67 kg/m3
mass density (333.04 K, 16000 kPa, x1 = 0.0018): 787.41 ± 0.95 kg/m3
mass density (333.04 K, 16000 kPa, x1 = 0.0077): 797.38 ± 0.7 kg/m3
mass density (333.04 K, 16000 kPa, x1 = 0.0112): 804 ± 0.75 kg/m3
mass density (333.04 K, 16000 kPa, x1 = 0.0142): 808.51 ± 0.67 kg/m3
mass density (333.04 K, 17000 kPa, x1 = 0.0018): 788.23 ± 0.95 kg/m3
mass density (333.04 K, 17000 kPa, x1 = 0.0077): 798.2 ± 0.71 kg/m3
mass density (333.04 K, 17000 kPa, x1 = 0.0112): 804.81 ± 0.75 kg/m3
mass density (333.04 K, 17000 kPa, x1 = 0.0142): 809.32 ± 0.67 kg/m3
mass density (333.04 K, 18000 kPa, x1 = 0.0018): 789.05 ± 0.95 kg/m3
mass density (333.04 K, 18000 kPa, x1 = 0.0077): 799.02 ± 0.71 kg/m3
mass density (333.04 K, 18000 kPa, x1 = 0.0112): 805.61 ± 0.76 kg/m3
mass density (333.04 K, 18000 kPa, x1 = 0.0142): 810.12 ± 0.68 kg/m3
mass density (333.04 K, 19000 kPa, x1 = 0.0018): 789.86 ± 0.95 kg/m3
mass density (333.04 K, 19000 kPa, x1 = 0.0077): 799.81 ± 0.71 kg/m3
mass density (333.04 K, 19000 kPa, x1 = 0.0112): 806.39 ± 0.76 kg/m3
mass density (333.04 K, 19000 kPa, x1 = 0.0142): 810.91 ± 0.68 kg/m3
mass density (333.04 K, 20000 kPa, x1 = 0.0018): 790.65 ± 0.96 kg/m3
mass density (333.04 K, 20000 kPa, x1 = 0.0077): 800.56 ± 0.72 kg/m3
mass density (333.04 K, 20000 kPa, x1 = 0.0112): 807.16 ± 0.76 kg/m3
mass density (333.04 K, 20000 kPa, x1 = 0.0142): 811.68 ± 0.69 kg/m3
mass density (333.07 K, 1000 kPa, x1 = 0.0046): 780.3 ± 0.7 kg/m3
mass density (333.07 K, 2000 kPa, x1 = 0.0046): 781.23 ± 0.7 kg/m3
mass density (333.07 K, 3000 kPa, x1 = 0.0046): 782.1 ± 0.7 kg/m3
mass density (333.07 K, 4000 kPa, x1 = 0.0046): 783.02 ± 0.71 kg/m3
mass density (333.07 K, 5000 kPa, x1 = 0.0046): 783.92 ± 0.71 kg/m3
mass density (333.07 K, 6000 kPa, x1 = 0.0046): 784.83 ± 0.71 kg/m3
mass density (333.07 K, 7000 kPa, x1 = 0.0046): 785.74 ± 0.71 kg/m3
mass density (333.07 K, 8000 kPa, x1 = 0.0046): 786.64 ± 0.72 kg/m3
mass density (333.07 K, 9000 kPa, x1 = 0.0046): 787.54 ± 0.72 kg/m3
mass density (333.07 K, 10000 kPa, x1 = 0.0046): 788.44 ± 0.72 kg/m3
mass density (333.07 K, 11000 kPa, x1 = 0.0046): 789.33 ± 0.72 kg/m3
mass density (333.07 K, 12000 kPa, x1 = 0.0046): 790.21 ± 0.73 kg/m3
mass density (333.07 K, 13000 kPa, x1 = 0.0046): 791.08 ± 0.73 kg/m3
mass density (333.07 K, 14000 kPa, x1 = 0.0046): 791.94 ± 0.73 kg/m3
mass density (333.07 K, 15000 kPa, x1 = 0.0046): 792.79 ± 0.74 kg/m3
mass density (333.07 K, 16000 kPa, x1 = 0.0046): 793.62 ± 0.74 kg/m3
mass density (333.07 K, 17000 kPa, x1 = 0.0046): 794.45 ± 0.74 kg/m3
mass density (333.07 K, 18000 kPa, x1 = 0.0046): 795.27 ± 0.75 kg/m3
mass density (333.07 K, 19000 kPa, x1 = 0.0046): 796.06 ± 0.75 kg/m3
mass density (333.07 K, 20000 kPa, x1 = 0.0046): 796.84 ± 0.75 kg/m3

Reference: the NIST ThermoML archive (doi:10.1016/j.jct.2012.03.003)
